Results on 14 compounds are retold here after US20170210723A1, “MOLECULES HAVING PESTICIDAL UTILITY, AND INTERMEDIATES, COMPOSITIONS, AND PROCESSES, RELATED THERETO” (priority 2016, published 2017).

What all share (assay type): in vivo
In series [1] the test system is Cabbage Looper (Trichoplusia ni). As to the kind of experiment: Bioassays on CL, 128-well diet tray assay. To be noted: for mortality at 50 µg/cm2 / mortality at 0.05 µg/cm2 / mortality at 0.5 µg/cm2 / mortality at 5 µg/cm2: Trichoplusia ni; for mortality at 50 µg/cm2: 168 h, read-out: CL % Control (or Mortality) rating; for mortality at 0.05 µg/cm2: 0.05 μg/cm^2; for mortality at 0.05 µg/cm2 / mortality at 0.5 µg/cm2 / mortality at 5 µg/cm2: read-out: CL Percent control (or mortality); for mortality at 0.5 µg/cm2: 0.5 μg/cm^2; for mortality at 5 µg/cm2: 5 μg/cm^2. As for the experimental part:
Bioassays on CL were conducted using a 128-well diet tray assay.
One to five second instar CL larvae were placed in each well (3 mL) of the diet tray that had been previously filled with 1 mL of artificial diet to which 50 μg/cm^2 of the test molecule (dissolved in 50 μL of 90:10 acetone-water mixture) had been applied (to each of eight wells) and then allowed to dry. Trays were covered with a clear self-adhesive cover and held at 25° C., 14:10 light-dark for five to seven days. Percent mortality was recorded for the larvae in each well; activity in the eight wells was then averaged. The results are indicated in the table entitled “Table ABC: Biological Results” (See Table Section).
(§1) Bioassays on BAW and CL were conducted according to the procedures outlined in Example A: Bioassays on Beet Armyworm (“BAW”) and Cabbage Looper (“CL”) using the indicated concentrations.

Series [2] has as its system Yellow Fever Mosquito (Aedes aegypti). As to the kind of experiment: Bioassays on Yellow Fever Mosquito larvae, 96-well plate. The conditions noted are these: from 4000 ppm DMSO master plate, about 1 day-old larvae, 3 days. The protocol:
Master plates containing 400 μg of a molecule dissolved in 100 μL of dimethyl sulfoxide (DMSO) (equivalent to a 4000 ppm solution) are used. A master plate of assembled molecules contains 15 μL per well. To this plate, 135 μL of a 90:10 water:acetone mixture is added to each well. A robot (Biomek® NXP Laboratory Automation Workstation) is programmed to dispense 15 μL aspirations from the master plate into an empty 96-well shallow plate (“daughter” plate). There are 6 reps (“daughter” plates) created per master. The created daughter plates are then immediately infested with YFM larvae.
The day before plates are to be treated, mosquito eggs are placed in Millipore water containing liver powder to begin hatching (4 g. into 400 mL). After the daughter plates are created using the robot, they are infested with 220 μL of the liver powder/larval mosquito mixture (about 1 day-old larvae). After plates are infested with mosquito larvae, a non-evaporative lid is used to cover the plate to reduce drying. Plates are held at room temperature for 3 days prior to grading. After 3 days, each well is observed and scored based on mortality. The results are indicated in the table entitled “Table ABC: Biological Results” (See Table Section). AGRICULTURALLY ACCEPTABLE ACID ADDITION SALTS, SALT DERIVATIVES, SOLVATES, ESTER DERIVATIVES, POLYMORPHS, ISOTOPES, AND RADIONUCLIDES

Series [3] relates to Beet Armyworm (Spodoptera exigua). As to the kind of experiment: Bioassays on BAW, 128-well diet tray assay. The conditions noted are these: for mortality at 50 µg/cm2 / mortality at 0.05 µg/cm2 / mortality at 0.5 µg/cm2 / mortality at 5 µg/cm2: Spodoptera exigua; for mortality at 50 µg/cm2: 168 h, read-out: BAW % Control (or Mortality) rating; for mortality at 0.05 µg/cm2: 0.05 μg/cm^2; for mortality at 0.05 µg/cm2 / mortality at 0.5 µg/cm2 / mortality at 5 µg/cm2: read-out: BAW Percent control (or mortality); for mortality at 0.5 µg/cm2: 0.5 μg/cm^2; for mortality at 5 µg/cm2: 5 μg/cm^2. As for the experimental part: Bioassays on BAW were conducted using a 128-well diet tray assay. One to five second instar BAW larvae were placed in each well (3 mL) of the diet tray that had been previously filled with 1 mL of artificial diet to which 50 μg/cm^2 of the test molecule (dissolved in 50 μL of 90:10 acetone-water mixture) had been applied (to each of eight wells) and then allowed to dry. Trays were covered with a clear self-adhesive cover and held at 25° C., 14:10 light-dark for five to seven days. Percent mortality was recorded for the larvae in each well; activity in the eight wells was then averaged. The results are indicated in the table entitled “Table ABC: Biological Results” (See Table Section).
as §1

Setting [4] is: 50 μg/cm^2 on artificial diet, second instar larvae, five to seven days.

Each structure is given as a SMILES string.

The mortality is the share of the test organisms that died. As for `O=C(NCCSCC(F)(F)F)c1ccc(/C=C/C(c2cc(Cl)c(Cl)c(Cl)c2)C(F)(F)F)cc1Br` (centres unmarked) [F1, (E)-2-bromo-4-(4,4,4-trifluoro-3-(3,4,5-trichlorophenyl)but-1-en-1-yl)-N-(2-((2,2,2-trifluoroethyl)thio)ethyl)benzamide], the mortality at 50 µg/cm2 in series [1] (setting [4]) and in series [3] (setting [4]) was 50 to 100% in each case. Moreover, the “YFM % Control (or Mortality) rating” value in series [2] is on record as “A (80-100)”.

`O=C(NCC[S+]([O-])Cc1ccccc1)c1ccc(/C=C/C(c2cc(Cl)c(Cl)c(Cl)c2)C(F)(F)F)cc1Br` (centres unmarked) [F2, (E)-N-(2-(Benzylsulfinyl)ethyl)-2-bromo-4-(4,4,4-trifluoro-3-(3,4,5-trichlorophenyl)but-1-en-1-yl)benzamide]: the mortality at 50 µg/cm2 in series [1] (setting [4]) and in series [3] (setting [4]) was 50 to 100% each time. Further, in series [2], the “YFM % Control (or Mortality) rating” value was “A (80-100)”.

In the case of `O=C(NCC[S+]([O-])CC(F)(F)F)c1ccc(/C=C/C(c2cc(Cl)c(Cl)c(Cl)c2)C(F)(F)F)cc1Br` (centres unmarked) [F3, (E)-2-bromo-4-(4,4,4-trifluoro-3-(3,4,5-trichlorophenyl)but-1-en-1-yl)-N-(2-((2,2,2-trifluoroethyl)sulfinyl)ethyl)benzamide], the mortality at 50 µg/cm2 in series [1] (setting [4]) and in series [3] (setting [4]) was 50 to 100% in each case. For the same compound, the “YFM % Control (or Mortality) rating” value in series [2] is reported as “B (More than 0-Less than 80)”.

Take `CC[C@H](CSCCC(F)(F)F)NC(=O)c1ccc(/C=C/C(c2cc(Cl)c(Cl)c(Cl)c2)C(F)(F)F)cc1C(F)(F)F` (stereo partly drawn) [F11, 4-((E)-4,4,4-trifluoro-3-(3,4,5-trichlorophenyl)but-1-en-1-yl)-2-(trifluoromethyl)-N—((R)-1-((3,3,3-trifluoropropyl)thio)butan-2-yl)benzamide]: the mortality at 50 µg/cm2 in series [1] (setting [4]) and in series [3] (setting [4]) was 50 to 100% throughout. Moreover, the “YFM % Control (or Mortality) rating” value in series [2] is reported as “B (More than 0-Less than 80)”.

On to `CC[C@H](CSCC(F)(F)F)NC(=O)c1ccc(/C=C/C(c2cc(Cl)c(Cl)c(Cl)c2)C(F)(F)F)cc1C(F)(F)F` (stereo partly drawn) [F12, 4-((E)-4,4,4-Trifluoro-3-(3,4,5-trichlorophenyl)but-1-en-1-yl)-N—((R)-1-((2,2,2-trifluoroethyl)thio)butan-2-yl)-2-(trifluoromethyl)benzamide], for which the mortality at 50 µg/cm2 in series [1] (setting [4]) and in series [3] (setting [4]) was 50 to 100% in each case. Moreover, the “YFM % Control (or Mortality) rating” value in series [2] was “A (80-100)”.

With `CC[C@H](CSCC1CC1(F)F)NC(=O)c1ccc(/C=C/C(c2cc(Cl)c(Cl)c(Cl)c2)C(F)(F)F)cc1C(F)(F)F` (stereo partly drawn) [F13, N-((2R)-1-(((2,2-Difluorocyclopropyl)methyl)thio)butan-2-yl)-4-((E)-4,4,4-trifluoro-3-(3,4,5-trichlorophenyl)but-1-en-1-yl)-2-(trifluoromethyl)benzamide], the mortality at 50 µg/cm2 in series [1] (setting [4]) and in series [3] (setting [4]) was 50 to 100% throughout. The “YFM % Control (or Mortality) rating” value in series [2] is on record as “A (80-100)”.

As for `CC(C)[C@H](CSCC(F)(F)F)NC(=O)c1ccc(/C=C/C(c2cc(Cl)c(Cl)c(Cl)c2)C(F)(F)F)cc1C(F)(F)F` (stereo partly drawn) [F14, N—((R)-3-Methyl-1-((2,2,2-trifluoroethyl)thio)butan-2-yl)-4-((E)-4,4,4-trifluoro-3-(3,4,5-trichlorophenyl)but-1-en-1-yl)-2-(trifluoromethyl)benzamide], the mortality at 50 µg/cm2 in series [1] (setting [4]) and in series [3] (setting [4]) was 50 to 100% throughout. Also, the “YFM % Control (or Mortality) rating” value in series [2] is listed as “A (80-100)”.

As for `CC[C@H](CS(=O)(=O)CCC(F)(F)F)NC(=O)c1ccc(/C=C/C(c2cc(Cl)c(Cl)c(Cl)c2)C(F)(F)F)cc1C(F)(F)F` (stereo partly drawn) [F21, 4-((E)-4,4,4-Trifluoro-3-(3,4,5-trichlorophenyl)but-1-en-1-yl)-2-(trifluoromethyl)-N—((R)-1-((3,3,3-trifluoropropyl)sulfonyl)butan-2-yl)benzamide], the mortality at 50 µg/cm2 in series [1] (setting [4]) and in series [3] (setting [4]) was 50 to 100% throughout. Besides, the “YFM % Control (or Mortality) rating” value in series [2] is “A (80-100)”.

For the compound `C[C@H](CS(=O)(=O)CC(F)(F)F)NC(=O)c1ccc(/C=C/C(c2cc(Cl)c(Cl)c(Cl)c2)C(F)(F)F)cc1C(F)(F)F` (stereo partly drawn) [F24, 4-((E)-4,4,4-Trifluoro-3-(3,4,5-trichlorophenyl)but-1-en-1-yl)-N—((R)-1-((2,2,2-trifluoroethyl)sulfonyl)propan-2-yl)-2-(trifluoromethyl)benzamide], the mortality at 50 µg/cm2 in series [1] (setting [4]) is 50 to 100%. For the same compound, in series [1], the mortality at 0.05 µg/cm2 was 100%, the mortality at 0.5 µg/cm2 amounted to 100% and the mortality at 5 µg/cm2 was found to be 100%. Moreover, the “YFM % Control (or Mortality) rating” value in series [2] is recorded as “A (80-100)”. For the same compound, the mortality at 50 µg/cm2 in series [3] (setting [4]) was 50 to 100%. In series [3], the mortality at 0.05 µg/cm2 was 100%, the mortality at 0.5 µg/cm2 worked out at 100% and the mortality at 5 µg/cm2 is 100%.

For the compound `CS(=O)(=O)CC[C@@H](NC(=O)c1ccc(/C=C/C(c2cc(Cl)c(Cl)c(Cl)c2)C(F)(F)F)cc1C(F)(F)F)C(=O)NCC(F)(F)F` (stereo partly drawn) [F27, N—((R)-4-(Methylsulfonyl)-1-oxo-1-((2,2,2-trifluoroethyl)amino)butan-2-yl)-4-((E)-4,4,4-trifluoro-3-(3,4,5-trichlorophenyl)but-1-en-1-yl)-2-(trifluoromethyl)benzamide], in series [1] (setting [4]), the “CL % Control (or Mortality) rating” value is “A (50-100)”. In addition, the “YFM % Control (or Mortality) rating” value in series [2] is listed as “A (80-100)”. In addition, in series [3] (setting [4]), the “BAW % Control (or Mortality) rating” value is on record as “A (50-100)”.

Take `C[C@H](CSCC(F)(F)F)NC(=O)c1ccc(/C=C/C(c2ccc(Cl)c(Cl)c2)C(F)(F)F)cc1Br` (stereo partly drawn) [F137, 2-Bromo-4-((E)-3-(3,4-dichlorophenyl)-4,4,4-trifluorobut-1-en-1-yl)-N—((R)-1-((2,2,2-trifluoroethyl)thio)propan-2-yl)benzamide]: the mortality at 50 µg/cm2 in series [1] (setting [4]) and in series [3] (setting [4]) was 50 to 100% throughout.

For `C[C@H](CSCC(F)(F)F)NC(=O)c1ccc(/C=C/C(c2cc(Cl)c(Cl)c(Cl)c2)C(F)(F)F)cc1` (stereo partly drawn) [FC74, 4-((E)-4,4,4-Trifluoro-3-(3,4,5-trichlorophenyl)but-1-en-1-yl)-N—((R)-1-((2,2,2-trifluoroethyl)thio)propan-2-yl)benzamide], the mortality at 50 µg/cm2 in series [1] (setting [4]) and in series [3] (setting [4]) was 50 to 100% throughout.

Regarding `C[C@H](C[S+]([O-])CC(F)(F)F)NC(=O)c1ccc(/C=C/C(c2cc(Cl)c(Cl)c(Cl)c2)C(F)(F)F)cc1` (stereo partly drawn) [FC77, 4-((E)-4,4,4-Trifluoro-3-(3,4,5-trichlorophenyl)but-1-en-1-yl)-N-((2R)-1-((2,2,2-trifluoroethyl)sulfinyl)propan-2-yl)benzamide], the mortality at 50 µg/cm2 in series [1] (setting [4]) and in series [3] (setting [4]) was 50 to 100% throughout.

Consider `C[C@H](CS(=O)(=O)CC(F)(F)F)NC(=O)c1ccc(/C=C/C(c2cc(Cl)c(Cl)c(Cl)c2)C(F)(F)F)cc1` (stereo partly drawn) [FC78, 4-((E)-4,4,4-Trifluoro-3-(3,4,5-trichlorophenyl)but-1-en-1-yl)-N—((R)-1-((2,2,2-trifluoroethyl)sulfonyl)propan-2-yl)benzamide], for which the mortality at 50 µg/cm2 in series [1] (setting [4]) and in series [3] (setting [4]) was 50 to 100% each time. Moreover, the mortality at 0.05 µg/cm2 in series [1] and in series [3] was 0% each time. Also, the mortality at 0.5 µg/cm2 was determined as 7% in series [1] and 19% in series [3]. In addition, the mortality at 5 µg/cm2 in series [1] and in series [3] was 100% in each case.
